Data reported in patent US20100069393A1, “METHOD OF TREATMENT AND AGENTS USEFUL FOR SAME” (PRANA BIOTECHNOLOGY LIMITED, priority 2006, published 2010).

Assays:
[1] = In vivo toxicity, visual observations; settings: 30 mg/kg, number of days
[2] = Cytotoxicity: viability of M17 cells; settings: human, M17 neuroblastoma cells, Cytotoxicity (% viable at 1 and 10 uM); for viability at 1 uM: test compound 1 uM; for viability at 10 uM: test compound 10 uM
[3] = Mice plasma concentration; type: in vivo; settings: for Mice plasma concentration: presence in plasma at one or two time points (between 30 min and 4 h); for Mice plasma concentration (single dose): one or two time points (between 30 min and 4 h)
[4] = Neurotoxicity assay: MTS viability of primary cortical neuronal cultures; type: cell-based, mouse; settings: BL6Jx129sv, mouse, primary cortical neuronal cultures, Neuronal cells, read-out: Cytotoxicity (% viable at 1 and 10 uM); for viability at 4 days, 1 uM: test compound 1 uM; for viability at 4 days, 10 uM: test compound 10 uM
Description: Media was then replaced with Neurobasal media (Invitrogen Life Technologies) and B27 supplements (Invitrogen Life Technologies). Cultures were maintained at 37° C. in 5% CO2. Prior to experimentation, the culture medium was replaced with Neurobasal media and B27 minus antioxidants (Invitrogen Life Technologies).
Cell viability is determined using the MTS assay. Culture medium is replaced with fresh neurobasal medium plus B27 supplements minus antioxidants. 1/10th volume MTS solution (Cell Titre 96 Aqueous One, Promega Corporation) and incubated at 37° C., 2 hrs. 200 microlitre aliquots are measured with a spectrophotometer at 560 nm.
Neuronal cortical cells were cultured for five days as per Assay 2 in NB media and B27 supplement.
On day six the test compounds were added to the neuronal cell cultures in NB media and B27 supplement minus antioxidants.
Test compounds were dissolved in 100% DMSO to a concentration of 2.5 mM (10 mM if excess compound was weighed out per vial—then diluted to 2.5 mM). […] Test compounds were not added directly to cells, instead they were added to a 48 well ‘Drug Plate’ as comprised below:
The Drug Plate was incubated at 37° C. for 15 mins. 200 μl of each well was added in triplicate to the corresponding cell plate. The cell plate was incubated at 37 C, for 4 days.
On completion of the assay, 1/10 volume MTS was added per well of plate (i.e. 25 μl/250 μl). The plates were incubated at 37 C for 2 hrs, and then absorbance was read at 560 nm.

Row | SMILES | Mice plasma concentration [3] | Mice plasma concentration (single dose) [3] | Toxicity at 30 mg/kg [1] | viability at 1 uM [2] | viability at 10 uM [2] | viability at 4 days, 1 uM [4] | viability at 4 days, 10 uM [4]
1 | O=c1c2c(Cl)cc(Cl)c(O)c2ncn1Cc1cn2ccccc2n1 | Up to 98.3 ng/mL | – | 10 days, none | 109% | 98.2% | – | –
2 | CCCCNC(=O)C1=CN=C2C(O)=C(I)C=CN2C1 | Up to 27,598 ng/ml ng/mL | – | 10 days, none | 85.3% | 63.4% | – | –
3 | Br.O=c1c2c(Cl)cc(Cl)c(O)c2ncn1Cc1cccc(Cn2cnc3c(Cl)c(Cl)cc(Cl)c3c2=O)n1 | – | – | 10 days, none | 94.9% | 26.8% | 89% | 67%
4 | CCCCc1cnc2c(O)cccn2c1=S | Up to 57 ng/ml ng/mL | – | 7 days, 2/4 deaths | – | – | – | –
5 | CC(C)n1cnc2c(O)c(I)ccc2c1=O | Up to 277 ng/ml ng/mL | – | 10 days, 1/4 deaths | – | – | – | –
6 | CCn1cnc2c(O)c(I)cc(Cl)c2c1=O | Up to 1802 ng/mL | – | 10 days, 2/4 deaths | 101% | 50.4% | – | –
7 | O=c1c(-c2ccc(Cl)cc2)cnc2c(O)c(I)ccn12 | Up to 450 ng/mL | – | 10 days, mild toxic signs | – | – | 41% | 33%
8 | CCCc1cnc2c(O)cccn2c1=O | Up to 690 ng/ml ng/mL | – | 10 days, none | 79.1% | 45.2% | – | –
9 | O=c1c2cccc(O)c2ncn1Cc1cccc(Cn2cnc3c(O)cccc3c2=O)n1 | Up to 128.4 ng/mL | – | 10 days, none | 117% | 106% | – | –
10 | O=c1c2c(Cl)cc(Cl)c(O)c2ncn1N1CCCCC1 | – | – | 10 days, none | 87.9% | 72.7% | 98% | 51%
11 | CCn1cnc2c(O)c(I)ccc2c1=O | – | – | 10 days, none | – | – | – | –
12 | CC(C)c1cnc2c(O)c(I)ccn2c1=O | – | – | 10 days, 1/4 death, remaining 1/3 mild sings | 96.7% | 44.2% | – | –
13 | CCCCc1cnc2c(O)c(I)ccn2c1=O | – | – | 10 days, 2/4 deaths | 102% | 58.7% | – | –
14 | O=C(O)Cn1cnc2c(O)c(Cl)cc(Cl)c2c1=O | – | – | 10 days, none | 105% | 101% | – | –

More lines, main results first:

Row | Mice plasma concentration [3] | Mice plasma concentration (single dose) [3] | SMILES | Toxicity at 30 mg/kg [1] | viability at 1 uM [2] | viability at 10 uM [2] | viability at 4 days, 1 uM [4] | viability at 4 days, 10 uM [4]
15 | Up to 13214.8 ng/mL | – | Cn1ccnc1Cn1cnc2c(O)c(Cl)cc(Cl)c2c1=O | 10 days, none | 108% | 97.6% | – | –
16 | Up to 1166.6 ng/mL | – | CN(C)Cc1nc2c(O)c(Cl)cc(Cl)c2c(=O)n1CC1CC1.Cl | 10 days, none | 94.4% | 74.5% | – | –
17 | Up to 642.6 ng/mL | – | Br.CN(C)Cc1nc2c(O)c(Cl)cc(Cl)c2c(=O)[nH]1 | 10 days, none | 97.4% | 100% | – | –
18 | – | Below 100 ng/mL (single dose) | O=c1[nH]cnc2c(O)c(Cl)cc(Cl)c12 | 3 days, none | – | – | 100% | 93%
19 | – | Up to 1096 ng/mL (single dose) | CCCn1cnc2c(O)c(I)ccc2c1=O | 10 days, none | – | – | – | –
20 | Up to 400 ng/ml ng/mL | – | CCn1cnc2c(O)c(I)ccc2c1=S | 10 days, none, 1/4 mild signs | 85.7% | 43% | – | –
21 | Up to 409 ng/ml ng/mL | – | CC(C)c1cnc2c(O)cccn2c1=O | 10 days, none | 99.7% | 45.6% | – | –
22 | Up to 3896 ng/mL | – | CCn1nccc1-n1cnc2c(O)c(Cl)cc(Cl)c2c1=O | 10 days, none | – | – | 102% | 94%
23 | – | Up to 10 ng/mL (single dose) | O=c1c2c(Cl)cc(Cl)c(O)c2ncn1CCN1CCOCC1 | 10 days, none | – | – | 98% | 81%
